Experimental data published in US8895504B2, “Amylin derivatives” (priority 2008, dated 2014).
pEC50: −log10 of the molar value. *1 amine or outer side, *2 acyl side, *3 side chain or, on linkers, in order; H or OH if unused. Where a SMILES comes first, the peptide text is derived from it. Bridges are numbered along the chain shown (N, C = ends). Side-chain parts run from the residue outwards. The star is where a group is joined. C20 diacid = O=C(O)CCCCCCCCCCCCCCCCCCC(=O)*; γGlu = O=C(O)[C@H](CCC(=O)[*:2])N[*:1]; AEEA = NCCOCCOCC(=O)O

Target: T1, Amylin 3(a) receptor (human calcitonin receptor (CTa) and RAMP-3) (Homo sapiens, UniProt O60896+P30988)
T1 construct: expressed in transfected cells; host or cells: BHK570 cells, stably transfected with a CRE-luciferase reporter
T1 sequence (O60896 24-148): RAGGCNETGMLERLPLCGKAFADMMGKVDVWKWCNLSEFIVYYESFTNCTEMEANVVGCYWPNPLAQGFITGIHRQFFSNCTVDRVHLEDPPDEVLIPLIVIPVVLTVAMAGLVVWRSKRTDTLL
T1 sequence (P30988 25-474): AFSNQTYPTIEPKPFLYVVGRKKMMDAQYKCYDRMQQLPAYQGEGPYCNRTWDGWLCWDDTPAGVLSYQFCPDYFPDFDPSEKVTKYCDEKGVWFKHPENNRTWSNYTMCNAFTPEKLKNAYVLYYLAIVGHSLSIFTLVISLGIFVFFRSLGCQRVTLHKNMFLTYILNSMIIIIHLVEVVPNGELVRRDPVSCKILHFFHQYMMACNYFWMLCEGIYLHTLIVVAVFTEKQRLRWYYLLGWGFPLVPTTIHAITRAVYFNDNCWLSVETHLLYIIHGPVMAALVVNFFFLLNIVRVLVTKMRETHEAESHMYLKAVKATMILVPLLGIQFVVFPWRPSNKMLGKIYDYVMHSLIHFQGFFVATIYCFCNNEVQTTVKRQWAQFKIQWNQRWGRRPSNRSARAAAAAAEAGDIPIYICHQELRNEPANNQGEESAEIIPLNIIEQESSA
Test: Luciferase assay (III), BHK Amylin 3(a)//CRE-luc cells
Format: cell-based
Settings: BHK cells with Amylin 3(a) receptor and CRE luciferase reporter, 4 hours incubation; read-out: Potency Luciferase
Description: It has previously been published (Poyner D R et al 2002, Pharmacological Reviews 54(2) 233-246) that activation of Amylin receptors (coexpression of Calcitonin receptor and receptor activity modifying peptides RAMPs) by Amylin leads to an increase in the intracellular concentration of cAMP. Consequently, transcription is activated at promoters containing multiple copies of the cAMP response element (CRE). It is thus possible to measure Amylin activity by use of a CRE luciferase reporter gene introduced into BHK cells also expressing an Amylin receptor.
2. Construction of an Amylin 3(a)/CRE-luc Cell Line
A BHK570 cell line stably transfected with the human calcitonin receptor (CTa) and a CRE-responsive luciferase reportergene. The cell line was further transfected with RAMP-3, using standard methods. This turns the Calcitonin receptor into an Amylin 3(a) receptor. Methotrexate, Neomycin, and Hygromycin are selection markers for luciferase, the Calcitonin receptor, and RAMP-3, respectively.
3. Amylin Luciferase Assay
To perform activity assays, BHK Amylin 3(a)//CRE-luc cells were seeded in white 96 well culture plates at a density of about 20,000 cells/well. The cells were in 100 μl growth medium (DMEM with 10% FBS, 1% Pen/Strep, 1 mM Na-pyruvate, 250 nM Methotrexate, 500 μg/ml Neomycin, and 400 μg/ml Hygromycin). After incubation overnight at 37° C. and 5% CO2, the growth medium was replaced by 50 μl/well assay medium (DMEM (without phenol red), Glumamax™, 10% FBS, and 10 mM Hepes, pH 7,4). Further, 50 μl/well of standard or sample in assay buffer were added. After 4 hours incubation at 37° C. and 5% CO2, the assay medium with standard or sample were removed and replaced by 100 μl/well PBS. Further, 100 μl/well LucLite™ was added. The plates were sealed and incubated at room temperature for 30 minutes. Finally, luminescence was measured on a TopCounter (Packard) in SPC (single photon counting) mode.

Row | pEC50 | SMILES
1 | 8.70 | CC[C@H](C)[C@H](NC(=O)[C@@H]1CCCN1C(=O)CNC(=O)[C@H](Cc1ccccc1)NC(=O)[C@H](CC(N)=O)NC(=O)[C@H](CC(N)=O)NC(=O)[C@H](CO)NC(=O)[C@H](CO)NC(=O)[C@H](Cc1c[nH]cn1)NC(=O)[C@@H]1CCCN1C(=O)[C@H](CC(C)C)NC(=O)[C@H](Cc1ccccc1)NC(=O)[C@H](CC(N)=O)NC(=O)[C@H](C)NC(=O)[C@H](CC(C)C)NC(=O)[C@H](CCCNC(=N)N)NC(=O)[C@H](CCC(N)=O)NC(=O)[C@@H](NC(=O)[C@H](C)NC(=O)[C@@H]1CSSC[C@H](NC(=O)[C@H](CCCCN)NC(=O)[C@H](CCCNC(=N)N)NC(=O)CC[C@H](NC(=O)CCCCCCCCCCCCCCCCCCC(=O)O)C(=O)O)C(=O)N[C@@H](CC(N)=O)C(=O)N[C@@H]([C@@H](C)O)C(=O)N[C@@H](C)C(=O)N[C@@H]([C@@H](C)O)C(=O)N1)[C@@H](C)O)C(=O)N[C@@H](CC(C)C)C(=O)N1CCC[C@H]1C(=O)N1CCC[C@H]1C(=O)N[C@H](C(=O)N[C@@H](CC(N)=O)C(=O)N[C@H](C(=O)NCC(=O)N[C@@H](CO)C(=O)N[C@@H](CC(N)=O)C(=O)N[C@H](C(=O)N[C@@H](Cc1ccc(O)cc1)C(N)=O)[C@@H](C)O)C(C)C)[C@@H](C)O [Example 21, N-alpha-[(S)-4-Carboxy-4-(19-carboxynonadecanoylamino)butyryl]-Arg-[Pro17]-pramlintide] ({C20 diacid-γGlu}-RKCNTATCATQRLANFLPHSSNNFGPILPPTNVGSNTY-NH2; disulfide 3-8)
2 | 10.22 | CC[C@H](C)[C@H](NC(=O)[C@@H]1CCCN1C(=O)CNC(=O)[C@H](Cc1ccccc1)NC(=O)[C@H](CC(N)=O)NC(=O)[C@H](CCC(N)=O)NC(=O)[C@H](CO)NC(=O)[C@H](CO)NC(=O)[C@H](Cc1c[nH]cn1)NC(=O)[C@H](Cc1c[nH]cn1)NC(=O)[C@H](CC(C)C)NC(=O)[C@H](Cc1ccccc1)NC(=O)[C@H](CC(N)=O)NC(=O)[C@H](C)NC(=O)[C@H](CC(C)C)NC(=O)[C@H](CCCNC(=N)N)NC(=O)[C@H](CCC(N)=O)NC(=O)[C@@H](NC(=O)[C@H](C)NC(=O)[C@@H]1CSSC[C@H](NC(=O)[C@H](CCCNC(=N)N)NC(=O)[C@H](Cc2c[nH]cn2)NC(=O)[C@H](Cc2c[nH]cn2)NC(=O)COCCOCCNC(=O)CC[C@H](NC(=O)CCCCCCCCCCCCCCCCCCC(=O)O)C(=O)O)C(=O)N[C@@H](CC(N)=O)C(=O)N[C@@H]([C@@H](C)O)C(=O)N[C@@H](C)C(=O)N[C@@H]([C@@H](C)O)C(=O)N1)[C@@H](C)O)C(=O)N[C@@H](CC(C)C)C(=O)N1CCC[C@H]1C(=O)N1CCC[C@H]1C(=O)N[C@H](C(=O)N[C@@H](CC(N)=O)C(=O)N[C@H](C(=O)NCC(=O)N[C@@H](CO)C(=O)N[C@@H](CC(N)=O)C(=O)N[C@H](C(=O)N[C@@H](Cc1ccc(O)cc1)C(N)=O)[C@@H](C)O)C(C)C)[C@@H](C)O [Example 59, N-alpha-[2-(2-{2-[4-(S)-Carboxy-4-(19-carboxynonadecanoylamino)butyrylamino]ethoxy}ethoxy)acetyl]-His-His-[Arg1His17,Gln21]-pramlintide] ({C20 diacid-γGlu-AEEA}-HHRCNTATCATQRLANFLHHSSQNFGPILPPTNVGSNTY-NH2; disulfide 4-9)
3 | 10.05 | CC[C@H](C)[C@H](NC(=O)[C@@H]1CCCN1C(=O)CNC(=O)[C@H](Cc1ccccc1)NC(=O)[C@H](CC(N)=O)NC(=O)[C@H](CC(N)=O)NC(=O)[C@H](CO)NC(=O)[C@H](CO)NC(=O)[C@H](Cc1c[nH]cn1)NC(=O)[C@H](Cc1c[nH]cn1)NC(=O)[C@H](CC(C)C)NC(=O)[C@H](Cc1ccccc1)NC(=O)[C@H](CC(N)=O)NC(=O)[C@H](C)NC(=O)[C@H](CC(C)C)NC(=O)[C@H](CCCNC(=N)N)NC(=O)[C@H](CCC(N)=O)NC(=O)[C@@H](NC(=O)[C@H](C)NC(=O)[C@@H]1CSSC[C@H](NC(=O)[C@H](CCCNC(=N)N)NC(=O)[C@H](Cc2c[nH]cn2)NC(=O)[C@H](Cc2c[nH]cn2)NC(=O)CC[C@H](NC(=O)CCCCCCCCCCCCCCCCCCC(=O)O)C(=O)O)C(=O)N[C@@H](CC(N)=O)C(=O)N[C@@H]([C@@H](C)O)C(=O)N[C@@H](C)C(=O)N[C@@H]([C@@H](C)O)C(=O)N1)[C@@H](C)O)C(=O)N[C@@H](CC(C)C)C(=O)N1CCC[C@H]1C(=O)N1CCC[C@H]1C(=O)N[C@H](C(=O)N[C@@H](CC(N)=O)C(=O)N[C@H](C(=O)NCC(=O)N[C@@H](CO)C(=O)N[C@@H](CC(N)=O)C(=O)N[C@H](C(=O)N[C@@H](Cc1ccc(O)cc1)C(N)=O)[C@@H](C)O)C(C)C)[C@@H](C)O [Example 71, N-alpha-[(S)-4-Carboxy-4-(19-carboxynonadecanoylamino)butyryl]-His-His-[Arg1,His17]-pramlintide] ({C20 diacid-γGlu}-HHRCNTATCATQRLANFLHHSSNNFGPILPPTNVGSNTY-NH2; disulfide 4-9)
4 | 9.05 | CC[C@H](C)[C@H](NC(=O)[C@@H]1CCCN1C(=O)CNC(=O)[C@H](Cc1ccccc1)NC(=O)[C@H](CC(N)=O)NC(=O)[C@H](CC(=O)O)NC(=O)[C@H](CO)NC(=O)[C@H](CO)NC(=O)[C@H](Cc1c[nH]cn1)NC(=O)[C@H](Cc1c[nH]cn1)NC(=O)[C@H](CC(C)C)NC(=O)[C@H](Cc1ccccc1)NC(=O)[C@H](CC(N)=O)NC(=O)[C@H](C)NC(=O)[C@H](CC(C)C)NC(=O)[C@H](CCCNC(=N)N)NC(=O)[C@H](CCC(N)=O)NC(=O)[C@@H](NC(=O)[C@H](C)NC(=O)[C@@H]1CSSC[C@H](NC(=O)[C@@H](N)CCCCN)C(=O)N[C@@H](CCCCNC(=O)[C@H](CCC(=O)O)NC(=O)[C@H](CCCNC(=N)N)NC(=O)[C@H](CCC(=O)O)NC(=O)[C@H](CCC(=O)O)NC(=O)CCCCCCCCCCCCCCCCCCC(=O)O)C(=O)N[C@@H]([C@@H](C)O)C(=O)N[C@@H](C)C(=O)N[C@@H]([C@@H](C)O)C(=O)N1)[C@@H](C)O)C(=O)N[C@@H](CC(C)C)C(=O)N1CCC[C@H]1C(=O)N1CCC[C@H]1C(=O)N[C@H](C(=O)N[C@@H](CC(N)=O)C(=O)N[C@H](C(=O)NCC(=O)N[C@@H](CO)C(=O)N[C@@H](CC(N)=O)C(=O)N[C@H](C(=O)N[C@@H](Cc1ccc(O)cc1)C(N)=O)[C@@H](C)O)C(C)C)[C@@H](C)O [Example 2, N-epsilon3-(19-carboxynonadecanoyl-Glu-Glu-Arg-Glu)-[Lys3,His17,Asp21]-pramlintide] (H-KCK([Glu-Arg-Glu-Glu-C20 diacid])TATCATQRLANFLHHSSDNFGPILPPTNVGSNTY-NH2; disulfide 2-7)
5 | 10.00 | CC[C@H](C)[C@H](NC(=O)[C@@H]1CCCN1C(=O)CNC(=O)[C@H](Cc1ccccc1)NC(=O)[C@H](CC(N)=O)NC(=O)[C@H](CC(N)=O)NC(=O)[C@H](CO)NC(=O)[C@H](CO)NC(=O)[C@H](Cc1c[nH]cn1)NC(=O)[C@H](C)NC(=O)[C@H](CC(C)C)NC(=O)[C@H](Cc1ccccc1)NC(=O)[C@H](CC(N)=O)NC(=O)[C@H](C)NC(=O)[C@H](CC(C)C)NC(=O)[C@H](CCCNC(=N)N)NC(=O)[C@H](CCC(N)=O)NC(=O)[C@@H](NC(=O)[C@H](C)NC(=O)[C@@H]1CSSC[C@H](NC(=O)[C@H](CCCCN)NC(=O)[C@H](CCCNC(=N)N)NC(=O)CC[C@H](NC(=O)CCCCCCCCCCCCCCCCCCC(=O)O)C(=O)O)C(=O)N[C@@H](CC(N)=O)C(=O)N[C@@H]([C@@H](C)O)C(=O)N[C@@H](C)C(=O)N[C@@H]([C@@H](C)O)C(=O)N1)[C@@H](C)O)C(=O)N[C@@H](CC(C)C)C(=O)N1CCC[C@H]1C(=O)N1CCC[C@H]1C(=O)N[C@H](C(=O)N[C@@H](CC(N)=O)C(=O)N[C@H](C(=O)NCC(=O)N[C@@H](CO)C(=O)N[C@@H](CC(N)=O)C(=O)N[C@H](C(=O)N[C@@H](Cc1ccc(O)cc1)C(N)=O)[C@@H](C)O)C(C)C)[C@@H](C)O [Example 19, N-alpha-[(S)-4-Carboxy-4-(19-carboxynonadecanoylamino)butyryl]-Arg-[Ala17]-pramlintide] ({C20 diacid-γGlu}-RKCNTATCATQRLANFLAHSSNNFGPILPPTNVGSNTY-NH2; disulfide 3-8)
